The values that follow come from patent publication US20230117324A1, “OXAZINE MONOACYLGLYCEROL LIPASE (MAGL) INHIBITORS” (Hoffmann-La Roche Inc., priority 2018, published 2023).

This test has as its target T1, MAGL (Homo sapiens, UniProt Q99685).
T1 sequence (Q99685 1-303): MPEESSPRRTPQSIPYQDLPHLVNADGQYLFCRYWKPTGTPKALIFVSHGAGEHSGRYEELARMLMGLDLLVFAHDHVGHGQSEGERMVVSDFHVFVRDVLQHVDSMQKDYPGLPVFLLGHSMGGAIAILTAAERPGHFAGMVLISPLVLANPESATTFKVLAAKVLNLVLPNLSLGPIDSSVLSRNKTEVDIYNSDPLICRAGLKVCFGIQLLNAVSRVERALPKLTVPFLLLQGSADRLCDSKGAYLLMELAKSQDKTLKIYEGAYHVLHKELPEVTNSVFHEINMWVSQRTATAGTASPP
Kind of test: MAGL inhibition, 2-AG assay (hydrolysis of 2-arachidonoylglycerol, arachidonic acid by mass spectrometry). It is filed as biochemical. Particulars: 2-AG assay (footnote [b]). Summed up:
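Hydrolysis of 8 μM 2-arachidonoylglycerol by […] was run for 30 min at RT after a 15 min compound preincubation, in Tris/EDTA/Tween buffer. Test compounds spanned […]. The product was measured by online SPE-MS/MS (transitions 303.1→259.1 and 311.1→267.0), and activity was derived from the arachidonic acid/d8-arachidonic acid signal ratio.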

In general, IC50 refers to the concentration needed to halve the response being measured. Read a low IC50 as inhibition by little substance. `O=C1CO[C@H]2CCN(C(=O)N3CC(c4ccc(N5CCC(C(F)(F)F)C5)cc4)C3)C[C@H]2N1` (single isomer, unassigned) [Example 197, (4aR,8aS)-6-(3-(4-((R or S)-3-(Trifluoromethyl)pyrrolidin-1-yl)phenyl)azetidine-1-carbonyl)hexahydro-2H-pyrido[4,3-b][1,4]oxazin-3(4H)-one] had an IC50 of 0.5 nM. The value for `O=C1CO[C@H]2CCN(C(=O)N3CC(c4ccc(N5CCC(C(F)(F)F)C5)cc4)C3)C[C@H]2N1` (single isomer, unassigned) [Example 198, (4aR,8aS)-6-(3-(4-((S or R)-3-(Trifluoromethyl)pyrrolidin-1-yl)phenyl)azetidine-1-carbonyl)hexahydro-2H-pyrido[4,3-b][1,4]oxazin-3(4H)-one] was 1 nM. `O=C1CO[C@H]2CCN(C(=O)N3CCC(c4cccc(OC(F)(F)F)c4)C3)C[C@H]2N1` (single isomer, unassigned) [Example 221, (4aR,8aS)-6-[3-(S or R)-[3-(Trifluoromethoxy)phenyl]pyrrolidine-1-carbonyl]-4,4a,5,7,8,8a-hexahydropyrido[4,3-b][1,4]oxazin-3-one] came in with an IC50 of 178 nM. Regarding `O=C1CO[C@H]2CCN(C(=O)N3CCC(c4cccc(OC(F)(F)F)c4)C3)C[C@H]2N1` (single isomer, unassigned) [Example 222, (4aR,8aS)-6-[3-(R or S)-[3-(Trifluoromethoxy)phenyl]pyrrolidine-1-carbonyl]-4,4a,5,7,8,8a-hexahydropyrido[4,3-b][1,4]oxazin-3-one], half-maximal inhibition (IC50) required 114 nM. The compound `O=C1CO[C@H]2CCN(C(=O)N3CCC(c4cccc(Br)c4)C3)C[C@H]2N1` (single isomer, unassigned) [Example 228, (4aR,8aS)-6-[(3S or R)-3-(3-Bromophenyl)pyrrolidine-1-carbonyl]-4,4a,5,7,8,8a-hexahydropyrido[4,3-b][1,4]oxazin-3-one] had an IC50 of 162 nM.

For the compound `O=C1CO[C@H]2CCN(C(=O)N3CCC(c4cccc(Br)c4)C3)C[C@H]2N1` (single isomer, unassigned) [Example 229, (4aR,8aS)-6-[(3R or S)-3-(3-Bromophenyl)pyrrolidine-1-carbonyl]-4,4a,5,7,8,8a-hexahydropyrido[4,3-b][1,4]oxazin-3-one], the IC50 was determined as 229 nM.

The compound `O=C1CO[C@H]2CCN(C(=O)N3CCC(c4cc(Cl)cc(OCC(F)(F)F)c4)C3)C[C@H]2N1` (single isomer, unassigned) [Example 238, (4aR,8aS)-6-((R or S)-3-(3-Chloro-5-(2,2,2-trifluoroethoxy)phenyl)pyrrolidine-1-carbonyl)hexahydro-2H-pyrido[4,3-b][1,4]oxazin-3(4H)-one] gave a 50% inhibitory concentration (IC50) of 156 nM. Consider `O=C1CO[C@H]2CCN(C(=O)N3CCC(c4cc(Cl)cc(OCC(F)(F)F)c4)C3)C[C@H]2N1` (single isomer, unassigned) [Example 239, (4aR,8aS)-6-((S or R)-3-(3-Chloro-5-(2,2,2-trifluoroethoxy)phenyl)pyrrolidine-1-carbonyl)hexahydro-2H-pyrido[4,3-b][1,4]oxazin-3(4H)-one], for which half-maximal inhibition (IC50) was put at 39 nM. Compound `CC(Oc1ccc(C2CN(C(=O)N3CC[C@@H]4OCC(=O)N[C@@H]4C3)C2)cc1)C(F)(F)F` (single isomer, unassigned) [Example 246, (4aR,8aS)-6-[3-(R or S)-[4-(2,2,2-Trifluoro-1-methyl-ethoxy)phenyl]azetidine-1-carbonyl]-4,4a,5,7,8,8a-hexahydropyrido[4,3-b][1,4]oxazin-3-one] gave a half-maximal inhibitory concentration (IC50) of 1 nM. `CC(Oc1ccc(C2CN(C(=O)N3CC[C@@H]4OCC(=O)N[C@@H]4C3)C2)cc1)C(F)(F)F` (single isomer, unassigned) [Example 248, (4aR,8aS)-6-[3-(S or R)-[4-(2,2,2-Trifluoro-1-methyl-ethoxy)phenyl]azetidine-1-carbonyl]-4,4a,5,7,8,8a-hexahydropyrido[4,3-b][1,4]oxazin-3-one]: the IC50 was determined as 1 nM.
